Structures can show the parent of a compound that is named as a salt.
How the values were obtained:
skin overlying the tumor = assay: Skin reaction of skin overlying the tumor; format: in vivo, C3H/He mice
Excerpt: The skin reaction is scored as follows:
1 = superficial inflammation;
post injection. The skin reaction is scored as follows:
(§1) Otherwise, the procedure was the same. The following Table 5 indicates the results.
(§2) The following Table 6 provides the results.

white blood cells = assay: White blood cell count in treated tumor-bearing mice; format: in vivo, C3H/He mice; conditions: 5-FU 100 mg/kg, day 4 post-treatment, mean ± S.E. (Table 3)
Excerpt: the tail of treatment mice.
as §1, §2

[1] = Acute animal toxicity / survival; conditions: for Animal Survival: ADM 15 mg/kg, deaths usually within 2 days
Description: The adriamycin in distilled water (4.45 mg/ml) was mixed with 36 mg/ml bovine collagen (BC) 1:1 to yield a composition ratio of 2.25 mg adriamycin:18 mg BC/ml.

| Compound | Skin Reaction (skin overlying the tumor; 5-FU 75 mg/Kg, i.p., 5 min before X-rays (1000 rad), score 0-3 (Table 9)) | Skin Reaction (skin overlying the tumor; 5-FU 75 mg/Kg, i.p., no X-rays, score 0-3 (Table 9)) | Skin Reaction (skin overlying the tumor; 5-FU 100 mg/kg, i.t. (EPI 5 mg/kg where present), Day 8, score 0 = no effect, 1 = superficial inflammation, 2 = scab, 3 = ulcer (Table 3)) | White Blood Cells/mm^3 (white blood cells; i.p.) | White Blood Cells/mm^3 (white blood cells; i.t. (EPI 5 mg/kg where present)) | Skin Reaction (skin overlying the tumor; ADM 15 mg/kg, i.t., Day 8, score 0 = no effect, 1 = superficial inflammation, 2 = scab, 3 = ulcer) | toxicity ([1]; 15 mg/kg, intratumoral injection) | Animal Survival ([1]; i.p.) [%] | Animal Survival ([1]; i.t.) [%] |
| --- | --- | --- | --- | --- | --- | --- | --- | --- | --- |
| O=c1[nH]cc(F)c(=O)[nH]1 [5-FU, 5-fluorouracil] | 2 | 2 | 0 | 4.5 ± 0.6 Cells/mm^3 (×10^3) | 3.5 ± 0.5 Cells/mm^3 (×10^3) |  |  |  |  |
| COc1cccc2c1C(=O)c1c(O)c3c(c(O)c1C2=O)C[C@@](O)(C(=O)CO)C[C@@H]3O[C@H]1C[C@H](N)[C@H](O)[C@H](C)O1 [Free ADM, doxorubicin-HCl] |  |  |  |  |  | 2.0 | non-toxic | 25 | 100 |
